Source: PubChem BioAssay AID1963445 (Molecular Pharmacology Branch, DTP, NCI, 2024)
Values joined by “and” are separate entries in the source; they are usually repeats but may differ in a detail not shown here. Equal entries are not always repeated. Each block holds one compound with its values, some of them ahead of it.

Tested on: MCF7 complex spheroid growth, % test/control
Assay: Anticancer human tumor MCF7 cell line growth inhibition [Asc];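 further: spheroids exposed to compounds for 7 days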;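 on viability, T/C: 100% = DMSO vehicle control wells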
Settings: for viability, T/C: stronger effect = lower value
Method in brief: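 Stromal components (HUVEC and hMSC) are co-assembled with the cancer cells into multicellular spheroids. Drugs are then added singly or paired, at concentrations falling by half-log increments from a clinically achievable maximum, capped at 10 microM without known Cmax.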

[1] = curve of first compound, second compound 0.00949 µM
[2] = curve of first compound, second compound 0.03 µM
[3] = curve of first compound, second compound 0.0949 µM
[4] = curve of first compound, second compound 0.3 µM
[5] = curve of first compound, second compound 0.949 µM
[6] = curve of first compound, second compound 3 µM
[7] = second compound 0.00949 µM, first compound 0.0316 µM
[8] = second compound 0.00949 µM, first compound 0.1 µM
[9] = second compound 0.00949 µM, first compound 0.316 µM
[10] = second compound 0.00949 µM, first compound 1 µM
[11] = second compound 0.03 µM, first compound 0.0316 µM
[12] = second compound 0.03 µM, first compound 0.1 µM
[13] = second compound 0.03 µM, first compound 0.316 µM
[14] = second compound 0.03 µM, first compound 1 µM
[15] = second compound 0.0949 µM, first compound 0.0316 µM
[16] = second compound 0.0949 µM, first compound 0.1 µM
[17] = second compound 0.0949 µM, first compound 0.316 µM
[18] = second compound 0.0949 µM, first compound 1 µM
[19] = second compound 0.3 µM, first compound 0.0316 µM
[20] = second compound 0.3 µM, first compound 0.1 µM
[21] = second compound 0.3 µM, first compound 0.316 µM
[22] = second compound 0.3 µM, first compound 1 µM
[23] = second compound 0.949 µM, first compound 0.0316 µM
[24] = second compound 0.949 µM, first compound 0.1 µM
[25] = second compound 0.949 µM, first compound 0.316 µM
[26] = second compound 0.949 µM, first compound 1 µM
[27] = second compound 3 µM, first compound 0.0316 µM
[28] = second compound 3 µM, first compound 0.1 µM
[29] = second compound 3 µM, first compound 0.316 µM
[30] = second compound 3 µM, first compound 1 µM

Compound: C=C(F)C(=O)N1CCN(c2nc(OCC3CCCN3C)nc3c2CCN(c2cccc4cccc(Cl)c24)C3)CC1CC#N (configuration not stated) + CNC(C)C(=O)NC1CN(S(=O)(=O)c2cccc(S(=O)(=O)N3CCC4CCC(C(=O)NC(c5ccccc5)c5ccccc5)N4C(=O)C(NC(=O)C(C)NC)C3)c2)CCC2CCC(C(=O)NC(c3ccccc3)c3ccccc3)N2C1=O
IC50 (curve of first compound, second compound 0.00316 µM): < 31.6 nM
IC50 (curve of first compound, second compound 0.01 µM): < 31.6 nM
IC50 (curve of first compound, second compound 0.0316 µM): < 31.6 nM
IC50 (curve of first compound, second compound 0.1 µM): < 31.6 nM
IC50 (curve of first compound, second compound 0.316 µM): < 31.6 nM
IC50 (curve of first compound, second compound 1 µM): < 31.6 nM
viability, T/C (second compound 0.00316 µM, first compound 0.0316 µM): 47.7%
viability, T/C (second compound 0.00316 µM, first compound 0.1 µM): 38.8%
viability, T/C (second compound 0.00316 µM, first compound 0.316 µM): 29.2%
viability, T/C (second compound 0.00316 µM, first compound 1 µM): 15.9%
viability, T/C (second compound 0.00316 µM, first compound 3.16 µM): 1.96%
viability, T/C (second compound 0.00316 µM, first compound 10 µM): 0.09%
viability, T/C (second compound 0.01 µM, first compound 0.0316 µM): 14%
viability, T/C (second compound 0.01 µM, first compound 0.1 µM): 12%
viability, T/C (second compound 0.01 µM, first compound 0.316 µM): 15%
viability, T/C (second compound 0.01 µM, first compound 1 µM): 9.45%
viability, T/C (second compound 0.01 µM, first compound 3.16 µM): 2.95%
viability, T/C (second compound 0.01 µM, first compound 10 µM): 0.08%
viability, T/C (second compound 0.0316 µM, first compound 0.0316 µM): 13.4%
viability, T/C (second compound 0.0316 µM, first compound 0.1 µM): 9.36%
viability, T/C (second compound 0.0316 µM, first compound 0.316 µM): 10.1%
viability, T/C (second compound 0.0316 µM, first compound 1 µM): 7.62%
viability, T/C (second compound 0.0316 µM, first compound 3.16 µM): 2.55%
viability, T/C (second compound 0.0316 µM, first compound 10 µM): 0.08%
viability, T/C (second compound 0.1 µM, first compound 0.0316 µM): 12%
viability, T/C (second compound 0.1 µM, first compound 0.1 µM): 10.8%
viability, T/C (second compound 0.1 µM, first compound 0.316 µM): 11%
viability, T/C (second compound 0.1 µM, first compound 1 µM): 7.97%
viability, T/C (second compound 0.1 µM, first compound 3.16 µM): 1.68%
viability, T/C (second compound 0.1 µM, first compound 10 µM): 0.08%
viability, T/C (second compound 0.316 µM, first compound 0.0316 µM): 12%
viability, T/C (second compound 0.316 µM, first compound 0.1 µM): 12%
viability, T/C (second compound 0.316 µM, first compound 0.316 µM): 11.9%
viability, T/C (second compound 0.316 µM, first compound 1 µM): 7.65%
viability, T/C (second compound 0.316 µM, first compound 3.16 µM): 2.03%
viability, T/C (second compound 0.316 µM, first compound 10 µM): 0.1%
viability, T/C (second compound 1 µM, first compound 0.0316 µM): 12.6%
viability, T/C (second compound 1 µM, first compound 0.1 µM): 10.9%
viability, T/C (second compound 1 µM, first compound 0.316 µM): 10.3%
viability, T/C (second compound 1 µM, first compound 1 µM): 7.96%
viability, T/C (second compound 1 µM, first compound 3.16 µM): 1.41%
viability, T/C (second compound 1 µM, first compound 10 µM): 0.18%

Compound: NC1CCC(NC2CC2c2ccccc2)CC1 (configuration not stated)
viability, T/C (compound 0.000316 µM): 89.7% and 112% and 107%
viability, T/C (compound 0.001 µM): 115% and 132% and 136%
viability, T/C (compound 0.00316 µM): 128% and 133% and 125%
viability, T/C (compound 0.01 µM): 129% and 106% and 132%
viability, T/C (compound 0.0316 µM): 136% and 104% and 108%
viability, T/C (compound 0.1 µM): 102% and 147% and 137%
IC50 (curve of compound): > 100 nM

Compound: NC(=O)C(=Cn1cnc(-c2cc(C(F)(F)F)cc(C(F)(F)F)c2)n1)c1cncnc1
viability, T/C (compound 0.000949 µM): 113% and 86% and 71.3%
viability, T/C (compound 0.003 µM): 95.1% and 90% and 67.6%
viability, T/C (compound 0.00949 µM): 81.6% and 81.3% and 64.6%
viability, T/C (compound 0.03 µM): 83.8% and 96.8% and 60.7%
viability, T/C (compound 0.0949 µM): 41.4% and 32.1% and 51.5%
viability, T/C (compound 0.3 µM): 16% and 17.7% and 24.4%
IC50 (curve of compound): 83.4 nM and 65.8 nM and 94.9 nM

Further lines, with some results ahead:

IC50 [1]: > 1000 nM
IC50 [2]: > 1000 nM
IC50 [3]: < 3.16 nM
IC50 [4]: < 3.16 nM
IC50 [5]: < 3.16 nM
IC50 [6]: < 3.16 nM
Compound: CCN1CCN(Cc2ccc(Nc3ncc(F)c(-c4cc(F)c5nc(C)n(C(C)C)c5c4)n3)nc2)CC1 + CCN1C(C(=O)NC23CCC(C(=O)O)(CC2)CC3)C(c2cccc(Cl)c2F)C2(C(=O)Nc3cc(Cl)ccc32)C12CCCCC2
viability, T/C (second compound 0.00949 µM, first compound 0.00316 µM): 99%
viability, T/C (second compound 0.00949 µM, first compound 0.01 µM): 112%
viability, T/C [7]: 90.4%
viability, T/C [8]: 92.4%
viability, T/C [9]: 85.6%
viability, T/C [10]: 71.7%
viability, T/C (second compound 0.03 µM, first compound 0.00316 µM): 120%
viability, T/C (second compound 0.03 µM, first compound 0.01 µM): 99.9%
viability, T/C [11]: 88.2%
viability, T/C [12]: 63.7%
viability, T/C [13]: 59%
viability, T/C [14]: 66.1%
viability, T/C (second compound 0.0949 µM, first compound 0.00316 µM): 53.9%
viability, T/C (second compound 0.0949 µM, first compound 0.01 µM): 45.3%
viability, T/C [15]: 41.8%
viability, T/C [16]: 42.9%
viability, T/C [17]: 40.3%
viability, T/C [18]: 47.1%
viability, T/C (second compound 0.3 µM, first compound 0.00316 µM): 31.8%
viability, T/C (second compound 0.3 µM, first compound 0.01 µM): 30.2%
viability, T/C [19]: 27.7%
viability, T/C [20]: 30.9%
viability, T/C [21]: 34.5%
viability, T/C [22]: 40.2%
viability, T/C (second compound 0.949 µM, first compound 0.00316 µM): 20.6%
viability, T/C (second compound 0.949 µM, first compound 0.01 µM): 17.6%
viability, T/C [23]: 20.5%
viability, T/C [24]: 21.5%
viability, T/C [25]: 24.9%
viability, T/C [26]: 20%
viability, T/C (second compound 3 µM, first compound 0.00316 µM): 13.1%
viability, T/C (second compound 3 µM, first compound 0.01 µM): 14%
viability, T/C [27]: 14.8%
viability, T/C [28]: 14.6%
viability, T/C [29]: 12.7%
viability, T/C [30]: 13.4%

IC50 (curve of compound): > 10000 nM
Compound: C=CC(=O)N1CCN(c2nc(=O)n(-c3c(C)ccnc3C(C)C)c3nc(-c4c(O)cccc4F)c(F)cc23)C(C)C1 (configuration not stated)
viability, T/C (compound 0.0316 µM): 92.7% and 99.7% and 107%
viability, T/C (compound 0.1 µM): 90.9% and 101% and 93.8%
viability, T/C (compound 0.316 µM): 85.3% and 99.8% and 90.6%
viability, T/C (compound 1 µM): 91.7% and 121% and 102%
viability, T/C (compound 3.16 µM): 81.7% and 103% and 114%
viability, T/C (compound 10 µM): 75% and 76.2% and 103%

IC50 [1]: 3140 nM
IC50 [2]: 3270 nM
IC50 [3]: 1180 nM
IC50 [4]: < 31.6 nM
IC50 [5]: < 31.6 nM
IC50 [6]: < 31.6 nM
Compound: C=C(F)C(=O)N1CCN(c2nc(OCC3CCCN3C)nc3c2CCN(c2cccc4cccc(Cl)c24)C3)CC1CC#N (configuration not stated) + CCN1C(C(=O)NC23CCC(C(=O)O)(CC2)CC3)C(c2cccc(Cl)c2F)C2(C(=O)Nc3cc(Cl)ccc32)C12CCCCC2
viability, T/C [7]: 103%
viability, T/C [8]: 115%
viability, T/C [9]: 109%
viability, T/C [10]: 89.8%
viability, T/C (second compound 0.00949 µM, first compound 3.16 µM): 50.4%
viability, T/C (second compound 0.00949 µM, first compound 10 µM): 0.16%
viability, T/C [11]: 104%
viability, T/C [12]: 77.1%
viability, T/C [13]: 109%
viability, T/C [14]: 69.3%
viability, T/C (second compound 0.03 µM, first compound 3.16 µM): 53.8%
viability, T/C (second compound 0.03 µM, first compound 10 µM): 0.23%
viability, T/C [15]: 50.4%
viability, T/C [16]: 52.5%
viability, T/C [17]: 50.5%
viability, T/C [18]: 57.5%
viability, T/C (second compound 0.0949 µM, first compound 3.16 µM): 33.6%
viability, T/C (second compound 0.0949 µM, first compound 10 µM): 0.14%
viability, T/C [19]: 30.5%
viability, T/C [20]: 28%
viability, T/C [21]: 34.2%
viability, T/C [22]: 34.8%
viability, T/C (second compound 0.3 µM, first compound 3.16 µM): 10.5%
viability, T/C (second compound 0.3 µM, first compound 10 µM): 0.24%
viability, T/C [23]: 20.6%
viability, T/C [24]: 20.7%
viability, T/C [25]: 28.5%
viability, T/C [26]: 17.1%
viability, T/C (second compound 0.949 µM, first compound 3.16 µM): 2.09%
viability, T/C (second compound 0.949 µM, first compound 10 µM): 0.2%
viability, T/C [27]: 15.2%
viability, T/C [28]: 15.4%
viability, T/C [29]: 14.1%
viability, T/C [30]: 11.8%
viability, T/C (second compound 3 µM, first compound 3.16 µM): 2.7%
viability, T/C (second compound 3 µM, first compound 10 µM): 0.44%
